These results are taken from patent publication US6277364A, “Polyurethanes as topical skin protectants” (Bertek Pharmaceuticals, Inc., priority 1998, dated 2001).

In brackets after ≈: the same amount, converted by molar mass.

A short description of one data set: physchem. The settings on record: water.
The conditions of data set [1]: in vivo.
Description: In this example, the FTIR-ATR technique was used to assess the presence and amount of polyolprepolymer-2 ("PP-2") in the stratum corneum of two human subjects, in vivo.
The test solution contained 10 wt % PP-2 dissolved in ethanol/water (60:40 v/v). the control solution consisted only of ethanol/water (60:40 v/v). Webtril™ pads (12cm×2.5cm) were saturated either with test or control solution and were applied to the left and right forearms of two subjects, respectively. The pads were secured in place with Tegaderm 1626™ occlusive transparent dressing during the entire 3 hour exposure period. The skin surface of the dosing sites was lightly wiped with two cotton-tipped swabs following the exposure period. A total of 8 tape strippings were performed: 6 were done immediately and 2 were done 2 hours later. […]
FTIR spectra of the stratum comeum was measured from the dosing site and compared with the FTIR spectra of PP-2. The ratio of PP-2 absorption at 1095 cm^-1 to stratum corneum absorption at 675 cm^-1 (R 1095/675) was determined to account for potential differences in degree of contact between the sample (forearm) and the ATR crystal. […]
The absorbance ratio, R 1095/675, of PP-2 was determined. The quantity εb was computed, based upon the known surface concentration of PP-2 and using Beer's Law (A=εbC). […]

In the data set “physchem”, `O=c1[nH]cc(F)c(=O)[nH]1` [5-FU, 5-fluorouracil] gave a solubility of 10.2 mg/mL (≈ 78.4 mM). For the molecule “poly[oxy(methyl-1,2-ethanediyl)], α-hydro-ω-hydroxy-, polymer with 1,1'-methylene-bis-[4-isocyanatocyclohexane] [PP-2]”, the localization in skin result in data set [1] is given as “localized in the stratum corneum”.
